From patent EP2730586B1, “PROTEIN-P[…] OBTAINED FROM TISSUES OF HOOFED LIVESTOCK EMBRYOS, PROCESS FOR PREPARING SAME AND PHARMACEUTICAL COMPOSITION” (Aktsionernoe Obschestvo "Pharm-Sintez", priority 2011, dated 2012)

Tested on: mice marrow cells
Experimental: The study objective was detection and quantitative estimate of cytogenetic (mutagenic) activity of pharmacologic substances in polychromatophil cells (PCC) of mammal marrow. The method is based on microscopic recording of cells with micronuclei.
The experiments were performed to 2 months old male and female F1 (CBAx C57BI6/J) cross-breed mice weighing 18-20 g. Each group included 6 animals. The animals were kept at 12 hours light pattern with free food and water access. […] Three sessions of experiments were carried out with corresponding controls: therapeutic dose was tested on male animals with a single introduction; subtoxic dose was tested on male animals with a single introduction; therapeutic dose was tested on male animals with a single introduction; subtoxic dose was tested on male animals and female with five-time introduction.
Seven animal groups were formed: four experimental groups and three corresponding reference groups. The substance in the amount of 0.1 mg/kg was introduced five times at 24 hours interval to males and females. All animals were sacrificed 6 hours upon the last introduction of the protein/polypeptide complex.
In two other experimental groups, the protein/polypeptide complex was introduced in single dosing to males in doses of 0.2 mg/kg and 0.5 mg/kg.
Normal saline solvent was used as a negative control. It was introduced intraperitoneally to male and female mice of two reference groups for the same period and in the same amount as to the experimental animals.
Marrow cell preparations for micronuclei count were made by a standard method in compliance with guidelines [formula] […] The animals were sacrificed through cervical dislocation 6 hours after the last introduction. Both thigh bones were detached and muscles were removed from them. In order to wash out the marrow, fetal calf serum was used (produced by NPP PanEko). The marrow from both thigh bones was washed out into a microtube using a syringe. […] 2,000 polychromatophil cells from each animal were analyzed in encoded preparations.

O=P1(N(CCCl)CCCl)NCCCO1 (stereo not drawn) [Cyclophosphamide, cyclophosphamide]
polychromatophilic to normochromatic erythrocytes ratio (20 mg/kg, compared to control P<0.005): shift to the latter
increased frequency of micronucleus cells (male mice, 20 mg/kg intraperitoneally, versus reference, P<0.001): 19.6 times
frequency of micronucleus cells (male mice, 20 mg/kg intraperitoneally, 3.16 % in reference): 62.1%
